The text below walks through data of patent US11312690B2, “Compounds, compositions, methods for treating diseases, and methods for preparing compounds” (UNIVERSITY OF LOUISVILLE RESEARCH FOUNDATION, INC., priority 2015, dated 2022).

Where only a bound is given, the exact number is not on record here.

For data set [1], the system named is Panc-1. Description: Soft agar colony formation. It counts as cell-based, human. The method, then:
FIG. 1. Effects of some compounds of Formula (I) on RalGEF inhibitor on soft agar growth and normal growth in 2D of pancreatic carcinoma cell lines. In FIGS. 1A and 1B, Panc-1 (ATCC® CRL-1469™) and MiaPaCa-2 (ATCC® CRL-1420™) mutant Ras containing pancreatic tumor cell lines were plated in soft agar in the presence of 10 μM or 0.9 μM of compound I-1 and scored for the formation of colonies. In FIGS. 1C and 1D, compound I-1 was then tested for the ability to inhibit cell growth on the same cell lines under normal 2D growth conditions on plastic. “0” is the carrier. Cells were seeded at the same density and scored after two weeks in culture.
Human pancreatic tumor cell lines MiaPaca-2 and Panc-1 contain activated K-Ras and were used in the initial screen to identify compound I-1. Soft agar colony formation remains an established in vitro assay to predict tumorigenicity and was used to predict tumorigenicity for compound I-1.

For another data set, the system named is A549 (lung cancer). Kind of data set: Tumorigenic phenotype in vitro, Ras driven tumor cell line. The note with it: data not shown. It counts as cell-based. The text has this: (§1) (ATCC® HTB-75™)(ovarian cancer); D283 Med (ATCC® HTB-185™) (Medulloblastoma); A549 (ATCC® CCL-185™) (lung cancer); and LNCaP clone FGC (ATCC® CRL1740™) (prostate cancer).
Data set [2] deals with Caov-3 [Caov3] (ovarian cancer). The data set is described as above. It counts as cell-based. The note with it: data not shown.
Excerpt: as §1

Data set [3] relates to D283 Med (Medulloblastoma). The data set is described as above. The settings on record: data not shown. The data set is classed as cell-based.
Excerpt: as §1

Data set [4] has as its system LNCaP clone FGC (prostate cancer). Described as above. The data set is classed as cell-based. The settings on record: data not shown.
Excerpt: as §1

The test system of a further data set is MiaPaCa-2. Description: Normal 2D growth on plastic. The data set is classed as cell-based, human. The note with it: normal 2D growth conditions on plastic, 1 week, FIG. 1D. The procedure: (§2) FIG. 1. Effects of some compounds of Formula (I) on RalGEF inhibitor on soft agar growth and normal growth in 2D of pancreatic carcinoma cell lines. In FIGS. 1A and 1B, Panc-1 (ATCC® CRL-1469™) and MiaPaCa-2 (ATCC® CRL-1420™) mutant Ras containing pancreatic tumor cell lines were plated in soft agar in the presence of 10 μM or 0.9 μM of compound I-1 and scored for the formation of colonies. In FIGS. 1C and 1D, compound I-1 was then tested for the ability to inhibit cell growth on the same cell lines under normal 2D growth conditions on plastic. “0” is the carrier. […]

The test system of data set [5] is Panc-1. Kind of data set: Normal 2D growth on plastic. It counts as cell-based, human. The settings on record: normal 2D growth conditions on plastic, 1 week, FIG. 1C. The method, then:
as §2

Data set [6] concerns the target T1, interaction of K-Ras with RGL2 (Homo sapiens, UniProt O15211).
T1 construct: expressed in transfected cells; host or cells: HEK-293
T1 sequence (O15211 1-777): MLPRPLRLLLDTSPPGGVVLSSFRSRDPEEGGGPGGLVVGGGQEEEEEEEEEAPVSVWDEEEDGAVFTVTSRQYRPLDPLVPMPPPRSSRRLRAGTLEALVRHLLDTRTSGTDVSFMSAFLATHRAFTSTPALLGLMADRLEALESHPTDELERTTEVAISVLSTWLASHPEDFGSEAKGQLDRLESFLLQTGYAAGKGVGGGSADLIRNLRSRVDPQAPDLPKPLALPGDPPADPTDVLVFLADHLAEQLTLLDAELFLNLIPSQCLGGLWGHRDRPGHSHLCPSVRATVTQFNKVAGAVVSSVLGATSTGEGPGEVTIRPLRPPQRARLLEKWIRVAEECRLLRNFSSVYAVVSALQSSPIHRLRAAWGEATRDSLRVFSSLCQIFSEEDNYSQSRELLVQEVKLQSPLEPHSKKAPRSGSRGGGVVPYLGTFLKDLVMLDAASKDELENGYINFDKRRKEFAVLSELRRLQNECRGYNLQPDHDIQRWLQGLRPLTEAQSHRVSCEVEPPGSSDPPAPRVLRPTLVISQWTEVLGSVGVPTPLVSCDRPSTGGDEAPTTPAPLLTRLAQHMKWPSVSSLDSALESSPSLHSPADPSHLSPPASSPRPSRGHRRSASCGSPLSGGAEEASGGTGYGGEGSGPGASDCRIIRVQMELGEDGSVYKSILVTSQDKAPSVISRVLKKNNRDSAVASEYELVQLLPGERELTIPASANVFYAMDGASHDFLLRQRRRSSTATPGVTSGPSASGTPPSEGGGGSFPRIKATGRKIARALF
Description: Ras/RalGEF binding, immunoprecipitation and immunoblot from co-transfected HEK-293 cells. The settings on record: 10 μM, HA K-Ras 12v and GFP-RGL2, IP/IB, FIG. 3B. On the technique in general: In western blotting, separated proteins are transferred to a membrane and probed.

The next data set deals with Ral. Kind of data set: Endogenous Ral activation in cells with endogenous hyper-activated Ras (RalBP1 pull down kit). It counts as cell-based. The note with it: 10 μM, untransfected cells, FIG. 4. The method, then: (§3) Specific Inhibition of endogenous Ras/RalGEF signaling. FIG. 4. Specific suppression of Ral activation by some compounds of Formula (I). Cells with endogenous hyper-activated Ras were assayed for endogenous Ral activation in the presence or absence of inhibitor (10 μM) using a Cell Biolabs (SanDiego Calif.) kit. Compound I-1 was dissolved in DMSO; DMSO serves as the carrier negative control. IP is immunoprecipitation. IB is immunoblot. Cell lysates were then assayed for the levels of MAPK pathway activation using a phosphoERK antibody. They were the same. Actin is a loading control.
(§4) RalGEFs drive Ral into the active, GTP bound form so it can bind its effector RalBP1. […] Commercially available kits available from several vendors use RalBP1 attached to beads as an affinity reagent specific to the active form of Ral. By measuring the level of activated Ral and comparing it to the total levels of Ral, it is possible to measure the state of endogenous Ral activation. We assayed untransfected cells containing endogenous hyper-activated Ras for the effects of compound I-1 treatment on endogenous levels of active Ral levels.

The next data set concerns Ras/Raf/MAPK pathway. Description: MAPK pathway activation by phosphoERK antibody in cells with endogenous hyper-activated Ras. It counts as cell-based. The settings on record: 10 μM. The procedure:
as §3, §4

The nature of data set [7]: Preliminary in vivo toxicity. Details: species or system mice. The settings on record: 25 mg/kg, ip injection over 2 weeks, data not shown.
The subject of the next data set is RalA. Description: Activated RalA pull down in lung tissue of Mia-PaCa2 xenograft mice. The data set is classed as in vivo, NRG mice. The settings on record: treated vs carrier treated xenograft mouse, FIG. 5. The method, then: Some compounds of Formula (I) suppress Ral GTP levels in vivo—FIG. 5 NRG mice were provided with s.c. xenografts of Mia-PaCa2 cells. Tissue from the lungs of a carrier treated xenograft mouse and a compound I-1 treated mouse were assayed for the levels of activated RalA using a pull down assay kit using the manufacter's protocol (Cat. #BK040 from Cytoskeleton, Inc., Denver Colo.).

Regarding `COc1cccc(CNc2nc(CN(C)Cc3cccc(OC)c3)nc3sc(C)c(C)c23)c1` [Compound I-1], the “ability of the cells to grow in soft agar” value in the data set on Panc-1 [1] (10 μM, FIG. 1A) is given as “almost completely blocked”. In addition, the “tumorigenic phenotype in vitro” value is given as “blocks the tumorigenic phenotype in vitro at low μM or sub μM levels” in the data set with Panc-1 [1] (FIG. 1A); “blocks the tumorigenic phenotype in vitro” in the data set with A549 (lung cancer); “blocks the tumorigenic phenotype in vitro” in data set [2]; “blocks the tumorigenic phenotype in vitro” in data set [3]; “blocks the tumorigenic phenotype in vitro” in [4]. Further, in the data set on Panc-1 [1] (Homo sapiens, PANC-1, soft agar, titration experiments, data not shown, read-out: IC50 (concentration that inhibits 50% of colony formation)), the IC50 was less than 1000 nM. In addition, the “cell growth in 2D” value in the data set with MiaPaCa-2 and with Panc-1 [5] was “no reduction in growth” throughout. In data set [6], the “inhibition of RGL2 (Ras/RGL2 interaction)” value is “also inhibited RGL2”. Also, the “levels of endogenous active Ral (GTP bound)” value with Ral is “suppressed the levels of endogenous active Ral”. In addition, the “Ras/Raf/MAPK pathway activation (levels of phospho ERK)” value with Ras/Raf/MAPK pathway is given as “no inhibition of the Ras/Raf/MAPK pathway activation was detected”. In [7], the “deleterious effect on mice (behavior, weight)” value was “no obvious deleterious effect”. The “levels of active RalA in lung tissue” value in the data set with RalA is “reduced levels of active RalA”.
